Assay results published in patent US20240117431A1, “STEM-CELL BASED BIOMARKER DISCOVERY” (THE REGENTS OF THE UNIVERSITY OF CALIFORNIA, priority 2020, published 2024).
Entries after “also recorded” stand apart in the source; their conditions may differ.

Columns and labels:
[1] = target: T1, wild-type (WT) TgUPRT in HEK cells (Toxoplasma gondii, UniProt Q26998); experiment: In-cell RNA incorporation by wild-type TgUPRT, streptavidin dot blot; assay type: cell-based
T1 construct: 6xHis; expressed in transfected cells; host or cells: HEK293 (HEK293T)
T1 sequence (Q26998 whole entry): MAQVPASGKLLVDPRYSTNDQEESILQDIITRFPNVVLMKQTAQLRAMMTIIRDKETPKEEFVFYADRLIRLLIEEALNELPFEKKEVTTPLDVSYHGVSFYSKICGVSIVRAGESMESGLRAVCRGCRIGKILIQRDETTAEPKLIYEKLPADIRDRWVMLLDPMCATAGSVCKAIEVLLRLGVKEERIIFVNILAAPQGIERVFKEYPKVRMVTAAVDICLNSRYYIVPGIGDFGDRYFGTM
Description: Transfection, labeling of cellular RNA and RNA isolation: After 48h seeding, HEK293 cells were transfected with 2.5 μg of TgUPRT WT or mutant plasmids (pKN-CMV-TgUPRT-WT or -Mutt to Mut17) per 5 cm plate using JetPrime Transfection reagent (Polyplus Transfection, France). At 40h post-transfection, cells were incubated with a final concentration of 200 μM at <1% DMSO from 400 mM stock of uracil analogs (5EU, 5VU, 5AU) or 200 mM SAMU stock for 5 h. For time course study, HEK cells were treated with 200 μM uracil analogs for 0 h, 0.5, 1, 3, 5, 12 and 24 hours. For titrating uracil analog concentration experiments, HEK cells were treated with 0 (DMSO), 50, 100, 200, 500 μM or 1 mM uracil analog for 5h. Treated HEK cells were subjected to total RNA extraction using 1 mL Trizol Reagent (Invitrogen) following the manufacturer instructions.
Biotinylation via CuAAC and IEDDA: Cu-mediated Azide-Alkyne cycloaddition (CuAAC) click reactions were performed in 50 μL reaction at 22° C. on a shaker for 30 min with click reaction cocktail containing 15 μg of total RNA, 1 mM biotin alkyne or biotin azide, fresh 4.6 mM THPTA to a final concentration of 1 mM, and fresh 10.6 mM sodium ascorbate (NaAsc) at final concentration of 1.77 mM, and 12 mM CuSO4 at final concentration of 200 μM in biotinylation reaction buffer (10 mM TrisHCI, 1 mM EDTA, pH7.4). The biotinylated RNA was purified using RNA clean & Concentrator-5 kit (Zymo Research, Cat #R1013) according to the manufacturer instructions and eluted in 21 μL of nuclease free water.
Inverse electron demand [4+2] Diels-Alder cycloaddition (IEDDA) click reactions were performed in 50 μL at 37° C. or 22° C. (RT) for 3h on mixer at 500 rpm containing 10-15 μg of total RNA, 1 mM final concentration of biotin-benzyl tetrazine (Sigma Aldrich, Cat #793329-5MG) in nuclease free water. Clicked total RNA was purified using RNA clean & Concentrator-5 kit (Zymo Research, Cat #R1013) according to the manufacturer instructions, and RNA was eluted in 21 μL of nuclease free water.
HRP-streptavidin dot blot analysis: All gel reagents were from Bio-Rad. […]

[2] = target: T2, uracil monophosphate synthetase (UMPS) overexpressed in HEK cells (Homo sapiens, UniProt P11172); experiment: RNA incorporation with overexpression of UMPS, dot blot; assay type: cell-based; conditions: 1 mM, 24 hours, FIG. 12
T2 construct: expressed in transfected cells; host or cells: HEK cells
T2 sequence (P11172 1-480): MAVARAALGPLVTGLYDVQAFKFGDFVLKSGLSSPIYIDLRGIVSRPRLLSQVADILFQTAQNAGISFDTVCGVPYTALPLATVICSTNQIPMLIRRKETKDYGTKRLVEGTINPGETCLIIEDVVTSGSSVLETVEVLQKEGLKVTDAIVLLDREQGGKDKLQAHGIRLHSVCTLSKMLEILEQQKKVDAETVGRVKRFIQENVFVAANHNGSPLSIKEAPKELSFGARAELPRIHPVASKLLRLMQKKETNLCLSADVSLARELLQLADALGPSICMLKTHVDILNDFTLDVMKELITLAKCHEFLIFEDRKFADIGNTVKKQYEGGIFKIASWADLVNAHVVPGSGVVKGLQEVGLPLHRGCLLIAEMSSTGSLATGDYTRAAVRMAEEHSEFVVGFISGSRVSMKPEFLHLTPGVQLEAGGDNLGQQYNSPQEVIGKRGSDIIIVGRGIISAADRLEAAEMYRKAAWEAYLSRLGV
Description: Analogs were incubated for 24 hours at 1 mM concentration in HEK cells. RNA was extracted and biotinylated using MTSEA-Biotin, followed by dot-blot analysis. Strep-HRP=Streptavidin conjugated Horseradish peroxidase. MeBI=methylene blue staining serving as loading control.

SMILES | TgUPRT-dependent incorporation into cellular RNA ([1]; wild-type TgUPRT active site) | incorporation into cellular RNA with UMPS overexpression [2] | analog incorporation over time with wild-type TgUPRT ([1]; 200 μM, long periods of incubation, FIG. 9B)
C#Cc1c[nH]c(=O)[nH]c1=O [compound 1, 5-ethynylpyrimidine-2,4(1H,3H)-dione] | capable of such transformations | higher amount; also recorded: incorporation | 
C=Cc1c[nH]c(=O)[nH]c1=O [compound 2, 5-Vinylpyrimidine-2,4(1H,3H)-dione] |  | did not result in 2 incorporation into RNA and not | did not result in any observed incorporation
